Data taken from patent publication US12358892B2, “Metalloenzyme inhibitors for treating cancers, Alzheimer's disease, hemochromatosis, and other disorders” (Miralogx LLC, priority 2020, dated 2025).
Entries after “also recorded” stand apart in the source; their conditions may differ.

Assays:
Type in all cases: cell-based, human
[1] = system: NCI-H1299 NSCLC cell line; assay: BioMAP Oncology NSCLC panel (StroNSCLC and VascNSCLC systems)
Excerpt: The BioMAP® oncology system used in this Example is a coculture of primary human immune cells with primary tissue cells in the presence of the NSCL cells. In particular, The BioMAP® Oncology NSCLC panel models the interactions between the immune-stromal (fibroblasts) and immune-vascular (endothelial cells) environments in the context of non-small lung cancer (NCI-H1299 NSCLC cell line). The interactions between tumor cells, stimulated immune cells (peripheral blood mononuclear cells [PBMC]), and the host stromal network (human neonatal dermal fibroblasts [HDFn]) are captured in the StroNSCLC system. In parallel, the VascNSCLC system captures the interactions between tumor cells, activated immune cells and the vascular tissue (human umbilical vein endothelial cells [HUVEC]). The biomarkers selected for the BioMAP® Non-small Cell Lung Cancer (NSCLC) panel inform on activities related to inflammation, immune-function, tissue remodeling and metastasis in the context of a host tumor-microenvironment.
A signature BioMAP® profile that is reflective of the changes in protein biomarker readouts within an individual system is generated for each test agent. Biomarker readouts selected for therapeutic and biological relevance are predictive for disease outcomes or specific drug effects, and have been validated using agents with known clinical efficacy. Each readout is measured quantitatively by immune-based receptors, cytokines, chemokines, matrix molecules and enzymes. In total, the 42 biomarker readouts in the NSCLC panel capture the biological changes that occur within the physiological context of each particular BioMAP® system.
The BioMAP® Non-small Cell Lung Cancer (NSCLC) panel allows a focused in vitro evaluation of the impact of an agent in a model system that includes the hierarchical signaling networks that exist between interacting pathways and cells in a disease relevant setting. To represent the changes that are occurring in these complex systems, biomarker readouts with the ability to integrate and distinguish changes in different regulatory networks have been selected.
Data analysis of the results was performed as described in detail above in Example 3.1. Briefly, biomarker activities are annotated when at least one concentration of the test agent is outside of the significance envelope with an effect size >20% compared to the vehicle control (|log 10 ratio|>0.1) and a p-value <0.01. Cytotoxic conditions are noted when total protein levels decrease by more than 50% (log 10 ratio of SRB <−0.3). Biomarker key activities are described as modulated if these activities increase in some systems, but decrease in others.

B cells = assay: BioMAP proliferation readout, B cells; conditions: 100 μM, 33 μM, 11 μM
Excerpt: (§1) The X-axis lists the quantitative protein-based biomarker readouts measured in each system. The Y-axis represents a log-transformed ratio of the biomarker readouts for the drug-treated sample (n=1) over vehicle controls (n≥6). The grey region around the Y-axis represents the 95% significance envelope generated from historical vehicle controls. Biomarker activities are annotated when two or more consecutive concentrations change in the same direction relative to vehicle controls, are outside of the significance envelope, and have at least one concentration with an effect size >20% (|log 10 ratio|>0.1). Biomarker key activities are described as modulated if these activities increase in some systems, but decrease in others. […] As summarized in Table 2 below, the compound was active with 35 annotated readouts. […]
(§2) Human primary cells in BioMAP® systems are used at early passage (passage 4 or earlier) to minimize adaptation to cell culture conditions and preserve physiological signaling responses. […] Test agents prepared in either DMSO (small molecules; final concentration ≤0.1%) or PBS (biologics) are added at the indicated concentrations 1-hr before stimulation, and remain in culture for 24-hrs or as otherwise indicated (48-hrs, MyoF system; 72-hrs, BT system (soluble readouts); 168-hrs, BT system (secreted IgG)). […]

fibroblasts = assay: BioMAP proliferation readout, fibroblasts; conditions: 100 μM
Excerpt: as §1, §2

[2] = 7.4 μM, 22 μM, 67 μM, Angiogenesis related activities
[3] = 7.4 μM, 22 μM, 67 μM, Immune-related activities
[4] = 7.4 μM, 22 μM, 67 μM, Inflammation related activities
[5] = 7.4 μM, 22 μM, 67 μM, Matrix remodeling activities

C1=NC(c2cncc(C3CCC=N3)c2)CC1 (stereo not drawn) [3,5-bis(3,4-dihydro-2H-pyrrol-2-yl)pyridine]
Decreased activity: uPA [1, 2]: decreased and uPA
Increased activity: tPA [1, 2]: increased and tPA
Decreased Activity: sIL-6 [1, 3]: decreased
Decreased activity: sGranB [1, 3]: decreased; also recorded: sGranB
Decreased activity: sIFNγ [1, 3]: decreased; also recorded: SIFNG
Decreased activity: sIL-2 [1, 3]: decreased
Decreased activity: sIL-4 [1, 3]: decreased; also recorded: SIL-4
Decreased activity: sIL-10 [1, 3]: decreased
Decreased activity: sIL-13 [1, 3]: decreased
Decreased activity: sIL-17A [1, 3]: decreased; also recorded: SIL-17A
Decreased Activity: sTNFα [1, 4]: decreased; also recorded: STNFa
Decreased activity: VCAM-1 [1, 4]: decreased; also recorded: VCAM-1
Decreased activity: sMDC [1, 4]: decreased
Increased activity: IP-10 [1, 4]: increased; also recorded: IP-10
Increased activity: Collagen III [1, 5]: increased; also recorded: Col-III
Increased activity: EGFR [1, 5]: increased and EGFR
Increased activity: HGF [1, 5]: increased and HGF
annotated readouts ([1]; BioMAP Oncology NSCLC Panel): 21
annotated activities ([1]; StroNSCLC system): 16
annotated activities ([1]; VascNSCLC system): five
cytotoxicity ([1]; at 200 μM): cytotoxic
cytotoxicity in the VascNSCLC system ([1]; at 200 μM, VascNSCLC system): detectable cytotoxicity
antiproliferative effect on B cells (B cells): antiproliferative
antiproliferative effect on fibroblasts (fibroblasts): antiproliferative
